Measured values: ChEMBL document CHEMBL1136180, “Isolation of bisindole alkaloids that inhibit the cell cycle from Myxomycetes Arcyria ferruginea and Tubifera casparyi” (Bioorg Med Chem Lett, 2003)

Key:
HeLa [1] = assay: Compound was tested at concentration of 280 nM for HeLa cell cycle inhibition; arrest of G2/M phase; type: functional, cell-based; settings: Homo sapiens
HeLa [2] = assay: Compound was tested at concentration of 28 nM for HeLa cell cycle inhibition; arrest of G1 phase; type: functional, cell-based; settings: Homo sapiens

With `O=C1NC(=O)c2c1c1c3ccc(O)cc3[nH]c1c1[nH]c3cc(O)ccc3c21` the Concentration (HeLa [1]) was 100 ng/mL and the Concentration (HeLa [2]) was 10 ng/mL.
